# Columns and labels:
# Format in all cases: physicochemical
# [1] = Density of max-load solutions at ambient temperature
# [2] = 2 mL samples spotted onto glass plates, left uncovered at ambient conditions for approximately two months; conditions: 2 mL on glass plate, 20°-25° C.
# Experimental: To evaluate the herbicidal compositions under more stringent conditions, we increased their surface area and exposed them to ambient conditions at room temperature, atmospheric pressure, and uncovered over an extended period of time: 2 mL samples of the five liquefied combinations were spotted onto glass plates and left uncovered at ambient conditions (temperatures within a range of 20°-25° C.) for approximately two months.
# [3] = Storage in closed containers at ambient conditions for several months, visual phase check; conditions: 20-25 C, atmospheric pressure
# Source text: Behaviors inconsistent with a single phase liquid include liquid/liquid separation of layers, or liquid/solid striation, in each case noticeable as such to the unaided eye. […] The single phase liquid need not necessarily be a true solution in the physical sense but will appear to be a single phase to the unaided eye as described above.
# The amine-herbicide formulations prepared in Examples 1, 2, 3, and 4 were stored in closed containers at ambient conditions (room temperature varying from 20-25 C, atmospheric pressure) for several months.
# [4] = Maximum loading of herbicide amine salt in water (HCl titration of amine, Karl-Fischer water); conditions: glufosinate amine salts in water
# Source text: F is a factor that takes into account the amount of base or acid groups on the amine or acid, respectively.
Compound,density of max-load solution [1] [g/mL],physical state after open exposure on glass plate [2],physical state after storage (visual presence of salt solids) [3],Max Load amine [4] [g/L],Max Load g ae/L [4] [g ae/L]
"CN(C)Cc1ccccc1.O=C(O)COc1ccc(Cl)cc1Cl [BDMA/2,4-D]",1.25,turned into a crystallized mass,formed single phase liquids,–,–
COc1c(Cl)ccc(Cl)c1C(=O)O [MMEA/dicamba],1.31,remained liquefied,formed single phase liquids,–,–
CP(=O)(O)CCC(N)C(=O)O.N (centres unmarked) [NH3/glufosinate],–,–,–,1340,1339
"CCCCN(CCCC)CCCC.O=C(O)COc1ccc(Cl)cc1Cl [TNBA/2,4-D]",1.1,turned into a crystallized mass,formed single phase liquids,–,–

# — patent US11109591B2, “Single phase liquids of alkanolamine salts of dicamba” (Taminco BVBA, priority 2017, dated 2021)
